Experiment: Murine diet-induced obesity (DIO) model, Compounds B-D study
Format: in vivo, C57BL/6J mice
Details: DIO mice
Protocol: The effects of four representative compounds of the invention were tested in a mouse model of diet-induced obesity (DIO): • Compound A is (R)—N-(tert-butylsulfonyl)-4-(1-(5-(pyridin-3-yloxy)pyridin-2-yl)ethoxy)-3-(trifluoromethyl)benzamide; • Compound B is (R)-4-(1-(5-(cyclopropylmethoxy)pyridin-2-yl)propoxy)-N-((4-(2-(dimethylamino)ethoxy)phenyl)sulfonyl)-2,3-difluorobenzamide; • Compound C is (R)—N-((4-(2-(dimethylamino)ethoxy)piperidin-1l-yl)sulfonyl)-2,3-difluoro-4-(1-(5-(pyridin-2-yloxy)pyridin-2-yl)propoxy)benzamide; and • Compound D is (R)-2,3-difluoro-N-((4-methylpiperazin-1-yl)sulfonyl)-4-(1-(5-(pyridin-2-yloxy)pyridin-2-yl)propoxy)benzamide.
The mice used in these experiments were C57BL/6J mice fed a high-fat diet (D12492 from Research Diets) ad libitum during the study period. The vehicle and test article formulations were 10% w/v Solutol in water.
In this study, three compounds tested at 30 mg/kg were compared against vehicle control over a month. After their acclimation period, DIO mice were equally divided into groups of ten mice each based on body weight. The animals were pre-dosed for three days prior to formal dosing (once per day treatment every group), as well as weight and food intake were recorded from Day −2 onwards. From Day 1 to Day 27, the animals in the dosing group were administered orally by gavage at 5:00 p.m. every day. All animals were fasted overnight after dosing on Day 28 and Day 29. Then the blood (retro-orbital bleed) of mice from each group was collected at 7:00 a.m. to separate out the serum for measuring total cholesterol levels (TC), triglyceride (TG), aminotransferase alanine (ALT), aspartate aminotransferase (AST) and total bilirubin (TBil) levels on Day 29. On day 30, all animals were performed OGTT test (0 min, 15 min, 30 min, 60 min, 90 min and 120 min) and measured insulin levels (0 min, 15 min, 30 min and 60 min). On day 32, all animals were injected insulin after 4 hours fasting, then performed ITT test (0 min, 15 min, 30 min, 60 min and 90 min). On day 33, Epididymal white adipose tissue (eWAT), jejunum, liver, heart and brain were collected; eWAT, liver and heart weights were recorded. All of the adipose tissue in the abdominal cavity was collected and weighted, and the fatty tissue coefficient (body fat ratio) was calculated and then stored at −80° C. for inspection.
• 1. Body weight and Food Consumption: Pre-dose every day from Day −2 onwards. • 2. Day −2,—1 and Day 0: Handle mice and gavage with vehicle. • 3. Day 1˜27: Dose˜5:00 PM. • 4. Day 28: Dose˜5:00 PM. Fast overnight. • 5. Day 29: Determine total cholesterol levels and triglyceride, ALT, AST, total bilirubin levels˜7:00 AM. Resume feeding. • 6. Day 29: Dose˜5:00 PM. Fast overnight. • 7. Day 30: (No drug administration) Oral glucose tolerance test (OGTT) with glucose levels measured at Pre-dose, 15 min, 30 min, 60 min, 90 min and 120 min after the glucose challenge. And insulin levels will be test at time 0 min, 15 min, 30 min and 60 min after the glucose challenge. • 8. Day 30˜31: Dose˜5:00 PM. • 9. Day 32: (No drug administration) ITT test (two days after the OGTT test): Fast 4 h. After insulin injection, the levels of glucose will be measured at Pre-dose, 15 min, 30 min, 60 min and 90 min. • 10. After the ITT test. Collect serum with a terminal bleed from all 50 mice. • 11. Collect epidydimal WAT (eWAT) pad, jejunum, liver, heart, and brain. • 12. Record eWAT, liver, and heart weights. • 13. Before freezing tissue/serum: • (i) Assess Drug Concentration; serum, liver, eWAT, heart, jujenum, and brain. (25 serum samples; 5 mice/group will progress to biomarker study and remaining 25 serum samples saved for future analysis). • 14. Prepare liver, heart and eWAT tissue for histopathology analysis. • (ii) Liver for all 50 mice; HE staining to assess liver steatosis. • (iii) Heart or all 50 mice; HE and DAPI staining to assess cardiac morphology. […]

SMILES: CC[C@@H](Oc1ccc(C(=O)NS(=O)(=O)N2CCN(C)CC2)c(F)c1F)c1ccc(Oc2ccccn2)cn1 [Compound D, (R)-2,3-difluoro-N-((4-methylpiperazin-1-yl)sulfonyl)-4-(1-(5-(pyridin-2-yloxy)pyridin-2-yl)propoxy)benzamide]
- mean body weight versus control group (30 mg/kg oral daily): significantly lower than that of the control group from Day 15 to the end
- overall food consumption versus control group (30 mg/kg oral daily): significantly lower than that of the control group
- Body Weight (g)/Day (30 mg/kg oral daily, Day 1): 44.9 ± 4.3 g
- Body Weight (g)/Day (30 mg/kg oral daily, Day 2): 44.3 ± 4 g
- Body Weight (g)/Day (30 mg/kg oral daily, Day 3): 43.6 ± 3.9 g
- Body Weight (g)/Day (30 mg/kg oral daily, Day 4): 43.7 ± 3.8 g
- Body Weight (g)/Day (30 mg/kg oral daily, Day 5): 43.7 ± 3.6 g
- Body Weight (g)/Day (30 mg/kg oral daily, Day 6): 43.5 ± 3.6 g
- Body Weight (g)/Day (30 mg/kg oral daily, Day 7): 43.4 ± 3.5 g
- Body Weight (g)/Day (30 mg/kg oral daily, Day 8): 43.7 ± 3.6 g
- Body Weight (g)/Day (30 mg/kg oral daily, Day 9): 43.5 ± 3.6 g
- Body Weight (g)/Day (30 mg/kg oral daily, Day 10): 43.3 ± 3.5 g
- Body Weight (g)/Day (30 mg/kg oral daily, Day 11): 42.9 ± 3.4 g
- Body Weight (g)/Day (30 mg/kg oral daily, Day 12): 42.6 ± 3.4 g
- Body Weight (g)/Day (30 mg/kg oral daily, Day 13): 42.3 ± 3.4 g
- Body Weight (g)/Day (30 mg/kg oral daily, Day 14): 42.3 ± 3.3 g
- Body Weight (g)/Day (30 mg/kg oral daily, Day 15): 42.4 ± 3.2 g
- Body Weight (g)/Day (30 mg/kg oral daily, Day 16): 42.3 ± 3.2 g
- Body Weight (g)/Day (30 mg/kg oral daily, Day 17): 42.1 ± 3.4 g
- Body Weight (g)/Day (30 mg/kg oral daily, Day 18): 42.2 ± 3.4 g
- Body Weight (g)/Day (30 mg/kg oral daily, Day 19): 42.3 ± 3.5 g
- Body Weight (g)/Day (30 mg/kg oral daily, Day 20): 42.3 ± 3.6 g
- Body Weight (g)/Day (30 mg/kg oral daily, Day 21): 42.3 ± 3.6 g
- Body Weight (g)/Day (30 mg/kg oral daily, Day 22): 42.3 ± 3.7 g
- Body Weight (g)/Day (30 mg/kg oral daily, Day 23): 42.3 ± 3.7 g
- Body Weight (g)/Day (30 mg/kg oral daily, Day 24): 42.2 ± 3.8 g
- Body Weight (g)/Day (30 mg/kg oral daily, Day 25): 42.4 ± 3.4 g
- Body Weight (g)/Day (30 mg/kg oral daily, Day 26): 42.5 ± 3.5 g
- Body Weight (g)/Day (30 mg/kg oral daily, Day 27): 42.5 ± 3.7 g
- Body Weight (g)/Day (30 mg/kg oral daily, Day 28): 42.5 ± 3.9 g
- Body Weight (g)/Day (30 mg/kg oral daily, Day 29): 41.8 ± 3.8 g
- Body Weight (g)/Day (30 mg/kg oral daily, Day 30): 39.5 ± 3.6 g
- Body Weight (g)/Day (30 mg/kg oral daily, Day 31): 39.7 ± 3.9 g
- Body Weight (g)/Day (30 mg/kg oral daily, Day 32): 38.9 ± 3.8 g
- Body Weight (g)/Day (30 mg/kg, Day 0 (pre-dose)): 44.9 ± 4.3 g
- eWAT coefficient versus control group (30 mg/kg, Day 33): slightly lower than that of the control group
- eWAT weights versus control group (30 mg/kg, Day 33): significantly lower than that of the control group
- Body Weight (g)/Day (30 mg/kg, Day −1 (pre-dose)): 44.8 ± 4.1 g
- Body Weight (g)/Day (30 mg/kg, Day −2 (pre-dose)): 44.9 ± 4.1 g
- mean adipose weights versus control group (30 mg/kg, abdominal adipose tissue): significantly lower than that of the control group
- ITT blood glucose versus control group (Day 32, at 15, 30, 60 and 90 minutes after insulin): significantly lower than that of the control group

Reference: patent US20250275959A1, “COMPOUNDS AND METHODS OF THEIR USE” (LEXICON PHARMACEUTICALS, INC., priority 2024, published 2025)
